Test results reported in US20100137398A1, “USE OF HDAC INHIBITORS FOR THE TREATMENT OF GASTROINTESTINAL CANCERS” (NOVARTIS AG, priority 2007, published 2010).

What was measured:
[1] = tested on: SW948 colon cancer cell line; test: Monolayer growth inhibition assay (MTT/MTS); format: cell-based
Excerpt: (§1) The MTT is a colorimetric assay to determine the cell proliferation rate. The yellow tetrazolium MTT (3-(4, 5-dimethylthiazolyl-2)-2, 5-diphenyltetrazolium bromide) is reduced, by metabolically active cells, in part by the action of dehydrogenase enzymes, to generate reducing equivalents such as NADH and NADPH. The resulting intracellular purple formazan can be solubilized and quantified by spectrophotometric means. The signals produced is directly proportional to the cell numbers. Describing the MTT assay in detail, experiments were done using six-point or 9 point drug titrations in multi-well tissue culture dishes, with outer rows left empty. Cells were suspended in complete media at densities of between 10^3 and 10^4 cell/ml, respectively, and added per well. The appropriate medium (200 μl) was then added. Twenty-four hours later, 10 μl of MTS solution, were added to one plates to determine the activity at the time of compound addition (T0). This plate was incubated at 37° for 4 hours and the optical density was measured on a Molecular Devices Thermomax at 490 nm using the Softmax program. The T0 plate served as a reference for initial activity at the beginning of the experiment.
(§2) Compound addition began 24 hours after seeding, the same time as the T0 determination. Serial dilutions at 4-fold 2-fold, 1-fold, 0.5-fold, 0.25-fold and 0.125-fold of previously determined IC50 values of each compound were made in a 96-deep well plate with the highest concentrations on the edge of the plate. Each of the six dilutions were added in triplicate and complete medium was added to the empty outer rows, without cells. The compounds were added to the plates singly or in combination with Compound III (LBH589). The plates were incubated at 37° C. for 72 hours from seeding. The MTS solution was added (as for the T0 plate) and read four hours later. In order to analyze the data, the average value of media alone (background) was subtracted from each experimental well and the triplicate values were averaged for each compound dilution. The following formulas were used to calculate percent growth.
(§3) If X>T0, % Growth=100×(X−T0)/(GC−T0))
(§4) If X<T0, % Growth=100×(X−T0)/T0)
(§5) T0=average value of T0 minus background
(§6) GC=average value of untreated cells (in triplicate) minus background X=average value, of compound treated cells (in triplicate) minus background
(§7) IC50 the concentration of LBH589 required to inhibit cell growth by 50% and LD50s the concentration required to reduce cell number (kill cells) to 50% the original innoculum were determined. The “% Growth” was plotted against compound concentration and used to calculate IC50s and LD50s, employing the user-defined spline function in Microsoft Excel.
(§8) Colon cancer cell lines were treated with DMSO vehicle control or varying concentrations of LBH589 for 3 days. Cell proliferation was measured on the day of cell plating and on the third day post-treatment. IC50 and LD50 values were calculated as described above.

[2] = tested on: LS174T colon cancer cell line; test: Monolayer growth inhibition assay (MTT/MTS); format: cell-based
Excerpt: as §1, §2, §3, §4, §5, §6, §7, §8

[3] = tested on: MiaPaCa2 pancreatic cancer cell line; test: Cell proliferation assay, pancreatic cancer cell lines; format: cell-based
Excerpt: as §1, §2, §3, §4, §5, §6, §7
(§9) Pancreatic cancer cell lines were treated with DMSO vehicle control or varying concentrations of LBH589 for 3 days. Cell proliferation was measured on the day of cell plating and on the third day post-treatment. IC50 and LD50 values were calculated as described above.

[4] = tested on: Panc3.27 pancreatic cancer cell line; test: as above; format: cell-based
Excerpt: as §1, §2, §3, §4, §5, §6, §7, §9

[5] = tested on: SU.86.86 pancreatic cancer cell line; test: as above; format: cell-based
Excerpt: as §1, §2, §3, §4, §5, §6, §7, §9

[6] = tested on: Panc1 pancreatic cancer cell line; test: as above; format: cell-based
Excerpt: as §1, §2, §3, §4, §5, §6, §7, §9

[7] = tested on: Panc10.05 pancreatic cancer cell line; test: as above; format: cell-based
Excerpt: as §1, §2, §3, §4, §5, §6, §7, §9

[8] = tested on: BxPC3 pancreatic cancer cell line; test: as above; format: cell-based
Excerpt: as §1, §2, §3, §4, §5, §6, §7, §9

[9] = tested on: Panc2.03 pancreatic cancer cell line; test: as above; format: cell-based
Excerpt: as §1, §2, §3, §4, §5, §6, §7, §9

[10] = tested on: Hs766T pancreatic cancer cell line; test: as above; format: cell-based
Excerpt: as §1, §2, §3, §4, §5, §6, §7, §9

[11] = tested on: Capan1 pancreatic cancer cell line; test: as above; format: cell-based
Excerpt: as §1, §2, §3, §4, §5, §6, §7, §9

[12] = tested on: Panc4.03 pancreatic cancer cell line; test: as above; format: cell-based
Excerpt: as §1, §2, §3, §4, §5, §6, §7, §9

[13] = tested on: HPAC pancreatic cancer cell line; test: as above; format: cell-based
Excerpt: as §1, §2, §3, §4, §5, §6, §7, §9

[14] = tested on: AsPC1 pancreatic cancer cell line; test: as above; format: cell-based
Excerpt: as §1, §2, §3, §4, §5, §6, §7, §9

[15] = tested on: HCT116 colon cancer cells; test: HCT116 xenograft model, tumor growth; format: in vivo, Female athymic nude mice
Procedure: Female athymic nude mice were implanted subcutaneously with HCT116 colon cancer cells. […] Mice were treated with LBH589 at 5, 10 or 20 mg/kg intravenously (iv) 5 times a week for 3 weeks or 75 mg/kg of 5-Fluorouracil intravenously once a week for 3 weeks. Animals were calipered weekly. Compound activity was determined as the percent change in tumor volume of treated animals over control animals (% T/C). The percentage of regression was determined as the percent change in the final tumor volume at the end of the study over the starting tumor volume. […] The results are described in FIG. 1.

[16] = 3 days, concentration reducing cell number to 50% of original inoculum
[17] = Homo sapiens, 72 h, 3 days treatment

Cc1[nH]c2ccccc2c1CCNCc1ccc(/C=C/C(=O)NO)cc1 [LBH589, N-hydroxy-3-[4-[[[2-(2-methyl-1H-indol-3-yl)ethyl]-amino]methyl]phenyl]-2E-2-propenamide]
IC50 ([1]; Homo sapiens, 72 h, SW948, 3 days treatment): 5.06 nM
LD50 ([1]; SW948, 3 days, concentration reducing cell number to 50% of original inoculum): 34.92 nM
LD50 [2, 16]: 87.41 nM
IC50 [2, 17]: 16.8 nM
IC50 ([3]; Homo sapiens, MIA PaCa-2, 72 h, MiaPaCa2, 3 days treatment): 14.1 nM
LD50 ([3]; MiaPaCa2, 3 days, concentration reducing cell number to 50% of original inoculum): 59.5 nM
LD50 ([4]; Panc3.27, 3 days, concentration reducing cell number to 50% of original inoculum): 276.8 nM
IC50 ([4]; Pancreatic cancer cell, 72 h, Panc3.27, 3 days treatment): 38.5 nM
IC50 ([5]; Homo sapiens, 72 h, SU.86.86, 3 days treatment): 51 nM
LD50 ([5]; SU.86.86, 3 days, concentration reducing cell number to 50% of original inoculum): 170.4 nM
IC50 ([6]; Homo sapiens, PANC-1, 72 h, Panc1, 3 days treatment): 18.9 nM
LD50 ([6]; Panc1, 3 days, concentration reducing cell number to 50% of original inoculum): 175.4 nM
IC50 ([7]; Homo sapiens, Panc1005, 72 h, Panc10.05, 3 days treatment): 31.8 nM
LD50 ([7]; Panc10.05, 3 days, concentration reducing cell number to 50% of original inoculum): 282.4 nM
LD50 ([8]; BxPC3, 3 days, concentration reducing cell number to 50% of original inoculum): 104.8 nM
IC50 ([8]; Homo sapiens, BXPC-3, 72 h, BxPC3, 3 days treatment): 15.9 nM
IC50 ([9]; Homo sapiens, Panc203, 72 h, Panc2.03, 3 days treatment): 22.4 nM
LD50 ([9]; Panc2.03, 3 days, concentration reducing cell number to 50% of original inoculum): 599.5 nM
IC50 ([10]; 72 h, 3 days treatment): 14.1 nM
LD50 [10, 16]: 119.9 nM
LD50 ([11]; Capan1, 3 days, concentration reducing cell number to 50% of original inoculum): 191.5 nM
IC50 ([11]; Homo sapiens, CAPAN-1, 72 h, Capan1, 3 days treatment): 55.6 nM
LD50 ([12]; Panc4.03, 3 days, concentration reducing cell number to 50% of original inoculum): >10 µM
IC50 ([12]; Pancreatic cancer cell, 72 h, Panc4.03, 3 days treatment): 20.3 nM
LD50 [13, 16]: 2051.6 nM
IC50 [13, 17]: 123 nM
LD50 ([14]; AsPC1, 3 days, concentration reducing cell number to 50% of original inoculum): 372.4 nM
IC50 ([14]; Homo sapiens, 72 h, AsPC1, 3 days treatment): 25.1 nM
% T/C (percent change in tumor volume of treated over control animals) ([15]; 5 mg/kg intravenously 5 times a week for 3 weeks): 17%
% T/C (percent change in tumor volume of treated over control animals) ([15]; 10 mg/kg intravenously 5 times a week for 3 weeks): 6%
tumor regression (percent change in final tumor volume over starting tumor volume) ([15]; 20 mg/kg intravenously 5 times a week for 3 weeks): 8%
